Test system: GST-MDM2
Assay: Binder/nonbinder affinity selection on GST-MDM2 beads with plate reader readout
Format: binding
Conditions: 1:1 mixture, 500 nM each, 2 h at 4 °C with GST-MDM2 on GSH beads, four washes, elution 95 °C 5 min
Source text: We next investigated whether a templated ligation could yield peptides in an α-helical conformation. Since CD-based analyses would be difficult to interpret given the PNA, we opted to assess the helical nature of the peptide using binding to a target that requires this conformation. To this end, we used MDM2, an important regulator of the p53 tumor suppressor, which binds to an α-helix of p53[47] and has been a testing ground for stapling technologies[48]−[52] and screening technologies.[53]−[56] Additionally, several X-ray diffraction structures of the MDM2-peptide complex have been reported, supporting the importance of the helicity of the peptide.[51],[57],[58] […] Affinity selection of this mixture against GST-MDM2 immobilized on GSH beads was monitored by fluorescence quantification of the supernatant solution. […]
Ten μL of MagneGST glutathione particles (Promega #V8611) were blocked with 1 mg/mL BSA in PBS-CHAPS (10 mM phosphate buffer, 2.7 mM KCl, and 137 mM NaCl, pH 7.4, with 0.05% CHAPS) three times at room temperature for 5 min. […] The initial library, post-incubation library, washes, and elution were analyzed by a plate reader (SpectraMax i3x, in black 96-well microtiter plates (Thermo Scientific #267342)). […]

PNA- Gly Ser Nle Cba Gln Ala Trp Tyr Glu Nle Phe Thr Leu Gly -PNA (head to tail) [binder]
recovery in heat elution after affinity selection (fluorescence): strong recovery

From paper PMC11522901, “Translation of Deoxyribonucleic Acid into Synthetic Alpha Helical Peptides for Darwinian Evolution” (JACS Au, 2024)
